Results as given in patent US4636498A, “Formulation of antiinflammatory drugs” (Pfizer Inc., priority 1985, dated 1987).
“And” between values parts separate entries of the source, which are not always exact repeats. Identical values can stand only once. Counter-ions that a name gives are not always drawn. Like-named read-outs stand apart in the source and are kept apart here.

Columns and labels:
[1] = test system: adjuvant-induced arthritis; assay: Adjuvant-induced arthritis in the rat (inhibition of paw edema); type: in vivo, rat (male Wistar-Lewis); conditions: for % Inhibition of Lesions, Primary: day 4, injected paw; for % Inhibition of Lesions, Secondary: day 16, non-injected paw; for ED50: Rattus norvegicus, po, piroxicam alone, linear regression analysis
Experimental: Adjuvant arthritis was induced in adult male Wistar-Lewis rats weighing 250-270 grams each (Charles River Breeding Laboratories, Kingston, N.Y.) by a single subplantar injection of 1 mg of Mycobacterium butyricum (Difco Laboratories, Lot #0640-33) suspended in 0.1 ml mineral oil as described by Walz et al. (Proc. Soc. Exptl. Biol. Med., 136: 907-910, 1971). Seven rats were used in each group. Orally administered drugs were dissolved in water and dilute sodium hydroxide was added as necessary to ensure solution; control groups received only water. After neutralization of the solutions to pH 7.0, a volume of 10 ml/kg body weight was given by intubation with a blunt end, 18-gauge needle. Doses of each drug were given daily starting 1 day before the injection of adjuvant and continuing until 16 days after the induction of the arthritic lesion.
The initial hindpaw volumes (Vi) were measured on the day of adjuvant injection and the resultant swelling was determined on the injected paw (Vf - Vi) on the 4th day following the adjuvant injection. This was considered to be the primary response or lesion. The swelling (Vf - Vi) measured 16 days after adjuvant injection on the contralateral, non-injected hindpaw constituted the secondary response or lesion. The rats were weighed at the start of the experiments as well as 4 and 16 days after the induction of the disease. Percent inhibition of edema was calculated according to the following formula: [formula] […] This shift represents a 5 fold increase in the potency of piroxicam.

[2] = test system: gastric lesions induced by the ethanolamine salt of piroxicam; assay: Gastric lesions in rats induced by the ethanolamine salt of piroxicam; type: in vivo, rat; conditions: for ED50: Rattus norvegicus, po, 6.5 h, linear regression analyses
Experimental: (§1) Adult male "specific pathogen free" rats weighing 140-160 grams of the CD strain (Sprague-Dawley) were obtained from Charles River Breeding Laboratories (Kingston, N.Y.). The animals were acclimated for approximately one week and tested when they reached a body weight of 200-225 grams. The rats were fasted for 16 hours and randomized into groups consisting of 8 to 10 animals which were normalized with regard to their average body weight. Gastric ulcers were induced in the animals by orally dosing the animals with a single 100 mg/kg dose of piroxicam solution containing the drug dissolved in 2 ml 0.1% methylcellulose in water (pH=6.8). Those animals receiving 2-guanidino-4-(2-methyl-4-imidazolyl)thiazole (0.3, 1.0, 3.3 or 10.0 mg/kg as the dihydrochloride salt) separately received that drug, dissolved in an additional 2 ml of the same medium, at about the same time. Six and one-half hours later, the animals were sacrificed by cervical dislocation and autopsied. The stomachs were surgically removed, dissected along the greater curvature and rinsed with cold water. The stomachs were individually scored for both linear and punctate lesions. The total number of lesions was used for scoring purposes. The data obtained from each group of rats was analyzed after calculation of the mean number +/- the standard error of total gastric lesions. The values obtained were also compared to the controls which received only piroxicam by the two-tailed Student's t-test for nonpaired data.
According to the preceding Example, gastric ulcers were induced by a single dose of 100 mg of the ethanolamine salt of piroxicam. Test groups received 0.3, 1.0 and 3.3 mg/kg doses of 2-guanidino-4-(2-methyl-4-imidazolyl)thiazole.
This test was repeated, using 120 mg of the ethanolamine salt of piroxicam to induce ulcers.
According to Examples 2 and 3, gastric ulcers were induced by a single dose of 120 mg of the ethanolamine salt of piroxicam. Test groups received 0.03, 0.10 and 0.33 mg/kg doses of 2-(N-pentyl-N'-guanidino)-4-(2-methyl-4-imidazolyl)thiazole dihydrochloride.

[3] = test system: indomethacin-induced gastric lesions; assay: Prevention of indomethacin-induced gastric lesions in rats; type: in vivo, rat (male, CD strain); conditions: for ED50: Rattus norvegicus, po, mg/kg of free base, read-out: ID50 (the source's name)
Excerpt: Rats for testing were ordered to arrive the week before being tested, and acclimated that first week. Male, CD strain rats were used. By ordering at 100-125 grams, body weights during the second week generally ranged from 150-200 grams. Rats were fasted the day before the test, with food removed from the gang cages no later than 4 p.m. Following an overnight fast a loss of 15-20 grams body weight was anticipated, so volumes of test solutions required for the following day could be estimated. Water was allowed ad lib overnight and during the test itself. On the test day both oral and intraperitoneal dosing was done with volumes of 4.0 ml/kg. Therefore, by knowing approximate body weights (and therefore required volumes) as well as drug doses (mg/kg) to be used, the amount of antiulcer drug and indomethacin needed was determined and preweighed into test tubes the day before the test. The antiulcer drugs to be tested, in the form of their dihydrochloride salts, were put into solution or suspended. Distilled water was normally the vehicle used. Indomethacin was suspended in saline and homogenized with a small drop of Tween 80 (polysorbate 80) to prevent aggregation of particles. The indomethacin will not stay suspended in the saline, and it is critical that the test tube be well vortexed and the drug resuspended before each dose is drawn into a syringe. A random sample of the rats to be tested (usually about 20% of the total test group) was used to determine average body weight of the group. […] The rats were removed from the gang cage, given the test drug or vehicle p.o., and placed in individual cages. The timing of antiulcer drug dosing relative to the indomethacin challenge varied depending on the specific protocol used. As a typical test consisted of 7 groups of 7 rats each, a predose time of 45 minutes was conveniently used. This allowed about one minute to orally dose each rat. Indomethacin was administered i.p. after the predose time had elapsed. In the typical test mentioned above, this required going back to the first rat and beginning indomethacin injections as soon as the drug dosing was completed. To keep the predose time consistent, rats were also given the indomethacin at a rate of about one per minute. If the test compound was not expected to have a long duration of action, it was desirable to administer a second dose of antiulcer drug during the test. The typical time between indomethacin administration and sacrifice is 6.5 hours. […] Of course, control animals were also dosed with vehicle at this time. The rats were sacrificed 6.5 hours after administration of the indomethacin. The stomachs were excised, opened along the greater curvature, and rinsed under running water. Lightly rubbing the mucosa while holding it in the stream of water helped to remove some mucus and large clots of blood, but vigorous rubbing was avoided as it may dislodge blood from the indomethacin-induced hemorrhagic erosions, making the erosions extremely difficult to see. Next the stomachs were placed flat, mucosa side up, on a tray covered with saline-soaked towels. The lesions were then counted, or the stomachs held overnight for examination the following day. If they were stored overnight, the stomachs were first moistened with saline and placed in a polyethylene bag and in a refrigerator. The indomethacin-induced gastric lesions usually appeared as dark brown or black colored erosions in the corpus (the acid-secreting portion) of the stomach. The dark coloration is caused by the action of the gastric acid on blood within the erosion. Lesions were either punctate or linear in nature. Quantitative determination of lesion size has shown that the average lesion length is about 1 mm. Regardless of size, each individual lesion was counted as one. However, if one group of animals obviously had lesions of a different nature than the controls, this fact was recorded. […]

[4] = test system: piroxicam-induced gastric lesions; assay: Piroxicam-induced gastric lesions in rats; type: in vivo, rat (male, CD strain, Sprague-Dawley)
Experimental: as §1, with “The values obtained were also compared to the controls which received only piroxicam by the two-tailed Student's t-test for nonpaired data.” left out

[5] = test system: ethanol-induced ulcers; assay: Inhibition of ethanol-induced ulceration in rats; type: in vivo, rat (male); conditions: as dihydrobromide salt
Experimental: The antiulcer activity of the products of Examples 9 and 10 was also determined by an ethanol-induced rat ulcer assay. In this test, overnight fasted male rats are given drug (at 30 or 3 mg/kg) or water orally fifteen minutes prior to an orally administered dose of absolute ethanol (1.0 ml). One hour after the ethanol challenge the animals (8/group) are killed and the stomachs examined for the presence of lesions. After sacrifice the abdomen is opened and a locking hemostat placed at the pylorus. Six ml of a 4% solution of formaldehyde was injected into the stomach with a gastric feeding tube and a second locking hemostat was used to seal the esophagus. The stomach was removed, opened along the greater curvature and examined for ulceration.
The scoring system used to quantitate the ethanol-induced lesions is given below.
For each group of animals an ulcer index is calculated as follows: [formula]
The percentage inhibition of ulcers is calculated as follows: [formula]

[6] = particularly with indomethacin; cited from earlier work
[7] = Compound A oral dose 10.0 mg/kg

## Cc1nc(-c2csc(NC(=N)N)n2)c[nH]1.Cl.Cl [Compound A, 2-Guanidino-4-(2-methyl-4-imidazolyl)thiazole Dihydrochloride]
[1]; Compound A oral dose 1.0 mg/kg
  % Inhibition of Lesions, Primary: 0 (6) %
  % Inhibition of Lesions, Secondary: 3 (3) %
[1]; Compound A oral dose 3.3 mg/kg
  % Inhibition of Lesions, Primary: 0 (3) %
  % Inhibition of Lesions, Secondary: 28 (4) %
[1]; [7]
  % Inhibition of Lesions, Primary: 2 (2) %
  % Inhibition of Lesions, Secondary: 27 (3) %
[1]; compound alone
  Activity against secondary lesions (in words): significant activity against secondary lesions
  Activity for primary lesions (in words): no significant activity
  ED50 against secondary lesions (in words): no reliable ED50 could be extrapolated
[2]; 0.3-3.3 mg/kg, piroxicam ethanolamine salt 100 mg
  Reduction in gastric lesions induced by the ethanolamine salt of piroxicam (in words): significant reduction in gastric lesions
[2]; piroxicam ethanolamine salt 100 mg
  ED50: 0.88 mg/kg
[2]; piroxicam ethanolamine salt 120 mg
  ED50: 0.3 mg/kg
[3]; single drug dose, obtained by extrapolation
  ED50: 1.4 mg/kg
[3]; two drug doses, obtained by extrapolation
  ED50: 1.5 mg/kg
[3]; lowest dose tested, 2.2 mg/kg
  Reduction in lesion number: 63%
[4]; 0.3-10 mg/kg p.o.
  Reduction of piroxicam-induced gastric lesions (in words): significantly reduced piroxicam-induced gastric lesions
[4]; Rattus norvegicus, po, 6.5 h, linear regression analyses, piroxicam 100 mg/kg
  ED50: 0.32 mg/kg

## CCCCCCNc1nc(-c2csc(NC(=N)N)n2)c[nH]1 [Compound B, 2-Guanidino-4-(2-hexylamino-4-imidazolyl)thiazole]
[3]; two drug doses
  ED50: 10.5 mg/kg

## Cc1nc(-c2csc(N=C(N)NCc3ccccc3)n2)c[nH]1 [Compound C, 2-(N-Benzyl-N'-guanidino)-4-(2-methyl-4-imidazolyl)thiazole Dihydrochloride]
[5]; oral dose 3 mg/kg
  Inhibition of ethanol-induced ulceration: at least 40%
[5]; oral dose 30 mg/kg
  Inhibition of ethanol-induced ulceration: at least 77%
[3]; two drug doses
  ED50: 4.4 mg/kg

## N=C(N)Nc1nc(-c2c[nH]cn2)cs1 [Compound D, 2-guanidino-4-(4-imidazolyl)thiazole]
[3]; single drug dose
  ED50: 7.5 mg/kg
[3]; two drug doses
  ED50: 2 mg/kg

## CCCCCNC(N)=Nc1nc(-c2c[nH]c(C)n2)cs1 [Example 10, 4-(2-Methyl-4-imidazolyl)-2-(N-pentyl-N'-guanidino)thiazole Dihydrochloride]
[5]; oral dose 3 mg/kg
  Inhibition of ethanol-induced ulceration: at least 40%
[5]; oral dose 30 mg/kg
  Inhibition of ethanol-induced ulceration: at least 77%
[2]; Example 13, 0.03-0.33 mg/kg
  Reduction in gastric lesions induced by the ethanolamine salt of piroxicam (in words): significant reduction in gastric lesions
[2]; Example 13, piroxicam ethanolamine salt 120 mg
  ED50: 0.1 mg/kg

## CN1C(C(=O)Nc2ccccn2)=C(O)c2ccccc2S1(=O)=O [Piroxicam]
[1]; 96 h, read-out: ED50 against primary lesions
  ED50: 2.6 mg/kg
[1]; 384 h, read-out: ED50 against secondary lesions
  ED50: 0.45 mg/kg
[1]; piroxicam oral dose 0.10 mg/kg
  % Inhibition of Lesions, Primary: 29 (4) %
[1]; piroxicam oral dose 0.10 mg/kg, 0.1 mg/kg
  % Inhibition of Lesions, Secondary: 26 (2) % and 26%
[1]; piroxicam oral dose 0.33 mg/kg
  % Inhibition of Lesions, Primary: 33 (8) %
[1]; piroxicam oral dose 0.33 mg/kg, 0.33 mg/kg
  % Inhibition of Lesions, Secondary: 43 (4) % and 43%
[1]; piroxicam oral dose 1.00 mg/kg
  % Inhibition of Lesions, Primary: 45 (7) %
[1]; piroxicam oral dose 1.00 mg/kg, 1 mg/kg
  % Inhibition of Lesions, Secondary: 64 (3) % and 64%

## N[C@@](CF)(Cc1c[nH]cn1)C(=O)O [alphafluoromethylhistidine]
[6]
  Antiinflammatory activity (in words): synergistic antiinflammatory activity
